Measurements: US11155514B1, “Pleuromulin acitretin ester with antibacterial activity and a method of preparing the same” (SHAANXI UNIVERSITY OF SCIENCE AND TECHNOLOGY, priority 2020, dated 2021)
Values after ≈ are worked out from the molar mass of the structure shown. Read-outs that look alike come from different tables or passages of the source.

How the values were obtained:
Assay type in all cases: cell-based
[1] = tested on: multidrug-resistant Pseudomonas aeruginosa MDR-PA 18-174; test: MIC by microbroth dilution, MDR-PA 18-174; conditions: for MIC: Pseudomonas aeruginosa, read-out: Minimum bacteriostatic concentration (MIC)
Protocol: (§1) The minimal inhibitory concentration (MIC) of the compounds was determined by a microbroth dilution method with gentamicin, cefazolin sodium and ceftriaxone sodium as positive controls.
(§2) The experimental strains included methicillin-resistant Gram-positive bacteria: methicillin-resistant Staphylococcus aureus MRSA 18-222, 18-575; multiple drug-resistant Gram-negative bacteria: […], multidrug-resistant Pseudomonas aeruginosa MDR-PA 18-174,18-202, carbapenem-resistant Acinetobacter baumannii CR-AB 18-183,18-560. All the experimental strains were donated by Huashan Hospital affiliated to Fudan University (Institute of antibiotics, Fudan University) and used after routine identification.
(§3) Preparation of Test Strains:
(§4) Preparation of MHB medium: 20.0 g MHB medium was added to 1 L distilled water, boiled until completely dissolved, packed in conical bottles and sterilized at 121° C. for 15 min.
(§5) The experimental strain was cultured to the logarithmic growth phase: under aseptic condition, the experimental strain was inoculated into 100 mL MHB medium and incubated in a constant temperature and humidity incubator at 37° C. for 20-22 hours.
(§6) Preparation of storage solution: weigh the sample to be tested, dissolve it with 1% DMSO solution, prepare a storage solution with a concentration of 2560 μg/mL, weigh a positive reference substance, dissolve it with aseptic distilled water, and configure a storage solution with a concentration of 2560 μg/mL.
(§7) Preparation of bacterial suspension: under aseptic condition, the experimental strains cultured to logarithmic growth phase were adjusted to 0.5 MCF turbidity standard with MHB medium and diluted according to 1:10, and the bacterial suspension with concentration of 10^6 CFU/mL was prepared for standby.
(§8) Stock solution dilution and inoculation of experimental strains: under aseptic conditions, dilute the stock solution to a solution of 256 μg/mL. Take a sterile 96-well plate, add 100 μL of MHB medium to each well except for the first and second wells; add 100 μL of positive control solution to the first well, and add 100 μL of compound sample solution to the second and third wells; Mix the sample solution in the 3 wells with the medium, and then pipet 100 μL to the 4th well, and then pipet 100 μL to the 5th well after mixing, and then dilute to the 9th well in a series of times, and draw 100 μL from the 9th well and discard, the 10th well is a growth control without drugs; then, add 100 μL of the above-prepared bacterial suspension to each well to make the final bacterial concentration of each well 5×10^5 CFU/mL; so far, the positive control concentration is 128 μg/mL, the concentration of the sample solution is 128, 64, 32, 16, 8, 4, 2, 1 μg/mL.
(§9) Incubation: Cover the 96-well plate inoculated with the experimental strains, and incubate in a constant temperature and humidity box at 37° C. for 20-22 hours.

[2] = tested on: carbapenem-resistant Acinetobacter baumannii CR-AB 18-560; test: MIC by microbroth dilution, CR-AB 18-560; conditions: for MIC: Acinetobacter baumannii, read-out: Minimum bacteriostatic concentration (MIC)
Protocol: as §1, §2, §3, §4, §5, §6, §7, §8, §9

drug-resistant bacteria = test: Antibacterial activity test, summary over all experimental strains; conditions: text summary of FIG. 1-2 and Table 1
Protocol: as §1, §2, §3, §4
The experimental strain was cultured to the logarithmic growth phase: under aseptic condition, the experimental strain was inoculated into 100 mL MHB medium and incubated in a constant temperature and humidity incubator at 37° C. for 20-22 hours. […]

[3] = tested on: carbapenem-resistant Acinetobacter baumannii CR-AB 18-183; test: MIC by microbroth dilution, CR-AB 18-183; conditions: for MIC: Acinetobacter baumannii, read-out: Minimum bacteriostatic concentration (MIC)
Protocol: as §1, §2, §3, §4, §5, §6, §7, §8, §9

[4] = tested on: vancomycin-resistant enterococci VRE 18-80; test: MIC by microbroth dilution, VRE 18-80; conditions: for MIC: Enterococcus, read-out: Minimum bacteriostatic concentration (MIC)
Protocol: as §1, §2, §3, §4, §5, §6, §7, §8, §9

[5] = tested on: multidrug-resistant Pseudomonas aeruginosa MDR-PA 18-202; test: MIC by microbroth dilution, MDR-PA 18-202
Protocol: as §1, §2, §3, §4, §5, §6, §7, §8, §9
(§10) In FIGS. 1-2, the ten wells represent ten groups, from left to right, positive, 128 μg/mL, 64 μg/mL, 32 μg/mL, 16 μg/mL, 8 μg/mL, 4 μg/mL, 2 μg/mL, 1 μg/mL, Negative.

[6] = tested on: vancomycin-resistant enterococci VRE 18-94; test: MIC by microbroth dilution, VRE 18-94; conditions: for MIC: Enterococcus, read-out: Minimum bacteriostatic concentration (MIC)
Protocol: as §1, §2, §3, §4, §5, §6, §7, §8, §9

[7] = tested on: methicillin-resistant Staphylococcus aureus MRSA 18-222; test: MIC by microbroth dilution, MRSA 18-222; conditions: for MIC: Staphylococcus aureus, read-out: Minimum bacteriostatic concentration (MIC)
Protocol: as §1, §2, §3, §4, §5, §6, §7, §8, §9

[8] = tested on: methicillin-resistant Staphylococcus aureus MRSA 18-575; test: MIC by microbroth dilution, MRSA 18-575
Protocol: as §1, §2, §3, §4, §5, §6, §7, §8, §9, §10

[9] = strain MDR-PA 18-174, 37° C., 20-22 hours
[10] = strain CR-AB 18-560, 37° C., 20-22 hours
[11] = strain CR-AB 18-183, 37° C., 20-22 hours
[12] = strain VRE 18-80, 37° C., 20-22 hours
[13] = Pseudomonas aeruginosa, strain MDR-PA 18-202, 37° C., 20-22 hours, read-out: Minimum bacteriostatic concentration (MIC)
[14] = strain VRE 18-94, 37° C., 20-22 hours
[15] = strain MRSA 18-222, 37° C., 20-22 hours
[16] = Staphylococcus aureus, strain MRSA 18-575, 37° C., 20-22 hours, read-out: Minimum bacteriostatic concentration (MIC)

| Molecule | inhibitory effect on drug-resistant bacteria (drug-resistant bacteria) | MIC [1, 9] [µg/mL] | MIC [2, 10] [µg/mL] | MIC [3, 11] [µg/mL] | MIC [4, 12] [µg/mL] | MIC [5, 13] [µg/mL] | MIC [6, 14] [µg/mL] | MIC [7, 15] [µg/mL] | MIC [8, 16] [µg/mL] | further results |
| --- | --- | --- | --- | --- | --- | --- | --- | --- | --- | --- |
| COc1cc(C)c(/C=C/C(C)=C/C=C/C(C)=C/C(=O)O)c(C)c1C [Acitretin] | no inhibitory effect |  |  |  |  |  |  |  |  | MIC [1]: > 128 µg/mL; MIC [2]: > 128 µg/mL; MIC [3]: > 128 µg/mL; MIC ([4]; VRE): > 128 µg/mL; MIC ([5]; Pseudomonas aeruginosa, read-out: Minimum bacteriostatic concentration (MIC)): > 128 µg/mL; MIC ([6]; VRE): > 128 µg/mL; MIC ([7]; MRSA): > 128 µg/mL; MIC ([8]; Staphylococcus aureus, MRSA, read-out: Minimum bacteriostatic concentration (MIC)): > 128 µg/mL |
| Cc1nnc(SCC2=C(C(=O)O)N3C(=O)[C@@H](NC(=O)Cn4cnnn4)[C@H]3SC2)s1 [Cefazolin sodium] |  | 8 | > 128 | > 128 | 32 | 128 | > 128 | > 128 | > 128 |  |
| CO/N=C(\C(=O)N[C@@H]1C(=O)N2C(C(=O)O)=C(CSc3nc(=O)c(=O)[nH]n3C)CS[C@H]12)c1csc(N)n1 [Ceftriaxone sodium] |  | 128 | > 128 | > 128 | 8 | 16 | > 128 | > 128 | > 128 |  |
| C=C[C@]1(C)C[C@@H](OC(=O)COC(=O)/C=C(C)/C=C/C=C(C)/C=C/c2c(C)cc(OC)c(C)c2C)[C@]2(C)CC[C@@H](C)C3(CCC(=O)[C@H]32)[C@@H](C)[C@@H]1O [Pleuromulin acitretinester, (2E,4E,6E,8E)-2-(((4R,5S,6S,8R,9R,9aR,12R)-5-hydroxy-4,6,9,12-tetramethyl-1-oxo-6-vinyldecahydro-3a,9-propanocyclopenta[8]annulen-8-yl)oxy)-2-oxoethyl 9-(4-methoxy-2,3,6-trimethylphenyl)-3,7-dimethylnona-2,4,6,8-tetraenoate] |  | > 128 | > 128 | > 128 | > 128 | 128 (≈ 186 µM) | > 128 | > 128 | 64 (≈ 93.2 µM) | MIC ([5]; multi-drug resistant Pseudomonas aeruginosa MDR-PA, strain not named, read-out: MIC): 128 µg/mL (≈ 186 µM); MIC ([8]; multi-drug resistant Staphylococcus aureus MRSA, strain not named, read-out: MIC): 64 µg/mL (≈ 93.2 µM) |
| C=C[C@]1(C)C[C@@H](OC(=O)CO)[C@]2(C)[C@H](C)CC[C@]3(CCC(=O)[C@H]32)[C@@H](C)[C@@H]1O [Pleuromulin] | no inhibitory effect | > 128 | > 128 | > 128 | > 128 | > 128 | > 128 | > 128 | > 128 |  |
| Gentamicin |  |  |  |  |  |  |  |  |  | Minimum bacteriostatic concentration (MIC) [1, 9]: 0.0625 µg/mL; Minimum bacteriostatic concentration (MIC) [2, 10]: >128 µg/mL; Minimum bacteriostatic concentration (MIC) [3, 11]: >128 µg/mL; Minimum bacteriostatic concentration (MIC) [4, 12]: 0.0625 µg/mL; Minimum bacteriostatic concentration (MIC) ([5]; strain MDR-PA 18-202, 37° C., 20-22 hours): 0.0625 µg/mL; Minimum bacteriostatic concentration (MIC) [6, 14]: >128 µg/mL; Minimum bacteriostatic concentration (MIC) [7, 15]: 128 µg/mL; Minimum bacteriostatic concentration (MIC) ([8]; strain MRSA 18-575, 37° C., 20-22 hours): 2 µg/mL |
